“And” between values parts separate entries of the source, which are not always exact repeats. Identical values can stand only once.

In series [1] the test system is heart tissues. As to the kind of experiment: Transmission electron microscopy of heart tissue. Type of series: in vivo, rat. The settings on record: experiment II; DOX alone, co-treatments vs DOX. The method, then: Freshly excised heart tissues were immediately fixed in 2.5% glutaraldehyde at 4 °C overnight. After washing with 0.1 M cacodylate trihydrate buffer, samples were post-fixed with 1% osmium tetroxide for 1 h. Tissues were then dehydrated through a graded ethanol series, incubated in acetone, and embedded in epoxy resin. Ultrathin sections were mounted on copper grids and imaged using a Hitachi HT7800 transmission electron microscope (Tokyo, Japan).

Series [2] has as its system phenylalanine metabolism. As to the kind of experiment: Phenylalanine and tyrosine levels in rat serum, liver and heart tissues (LC/MS). Type of series: in vivo. The settings on record: DOX-induced CHF rats, day 39. The method, then: Phenylalanine and tyrosine in the different rat bio-samples were analyzed by LC/MS using an Agilent 1290 Ultra high-performance liquid chromatography (UHPLC) and an Agilent 6460 triple-quadrupole tandem mass spectrometer (QQQ-MS) (Agilent Inc, USA). Data were acquired by using an Agilent Zorbax SB-C18 column (3.0 × 150 mm, 5 μm) as described previously.

The subject of series [3] is gut microbiota. As to the kind of experiment: 16S rRNA sequencing of gut microbiota. In kind it is in vivo, rat. The conditions noted are these: DOX group vs CON group. On the procedure: 16S rRNA sequencing and bioinformatics analysis were performed by OEbiotech Co. Ltd. (Shanghai, China). Total genomic DNA was extracted from cecal contents. The V3–V4 hypervariable region of the 16S rRNA gene was amplified using primers 343F and 798R. Clean reads were processed to remove primer sequences and clustered into operational taxonomic units (OTUs) at 97% similarity using Vsearch software. OTUs were annotated by comparison against the […]. Alpha diversity was assessed using the Simpson index. Beta diversity was evaluated using Bray–Curtis distances and visualized by principal coordinates analysis (PCoA). Differential abundance analysis of gut microbiota associated with DOX-induced CHF was performed using linear discriminant analysis effect size (LEfSe) and random forest algorithms.

The subject of series [4] is AML12 cells. As to the kind of experiment: AML12 cell viability (CCK8). In kind it is cell-based. On the procedure: (§1) Mouse hepatocellular cell lines (AML12), purchased from the Shanghai Cell Bank of Chinese Academy of Sciences (Shanghai, China), were cultured in Dulbecco’s Modified Eagle Medium (DMEM) supplemented with 10% fetal bovine serum (FBS) and 2 mM L-glutamine and 1% pyruvate and maintained at 37 °C in a […], 5% CO2 incubator. Cells were seeded at a density of 5 × 10^5 cells/well in 6-well plates. […] Cells’ survival rate was detected by Cell Counting Kit-8 (CCK8) Reagents (Thermo Scientific, Singapore).

Series [5] deals with DOX-induced CHF rats. The experiment in a line: Serum biochemical parameters (BNP, CK, LDH, ALT, AST) by ELISA kits. The settings on record: DOX group, experiment I. Type of series: in vivo, rat. On the procedure:
Serum biochemical parameters including brain natriuretic peptide (BNP), creatine kinase (CK), lactate dehydrogenase (LDH), alanine aminotransferase (ALT), and aspartate aminotransferase (AST) were measured using commercial ELISA kits (Nanjing Jiancheng Bioengineering Institute, Nanjing, China) according to the manufacturer's instructions. Superoxide dismutase (SOD), and malondialdehyde (MDA) levels in liver and heart tissues were measured using assay kits from […] Biotechnology (Changsha, China). Phenylalanine and tyrosine concentrations in the cell were determined using an ELISA kit from Abmart (Shanghai, China).

Series [6] deals with cardiac tissues of DOX-induced CHF rats. The experiment in a line: Heart histopathology (H&E, Masson) and TUNEL apoptosis detection. In kind it is in vivo, rat. The conditions noted are these: DOX group. On the procedure:
Cardiac tissues were fixed in 4% paraformaldehyde, embedded in paraffin, and sectioned at 4–5 μm thickness. Hematoxylin and eosin (H&E) staining was performed to assess histopathological changes, while Masson’s trichrome staining was used to evaluate cardiac fibrosis. Apoptosis in cardiac tissues was detected using a TUNEL assay kit (C1088, Beyotime, Shanghai, China).

The test system of series [7] is DOX-induced chronic heart failure (CHF) rat model. The experiment in a line: Echocardiography (LVEF%, LVFS%) in DOX-induced CHF rats. In kind it is in vivo. The settings on record: DOX group, cumulative 15 mg/kg, day 39. The method, then:
Experiment I, 48 rats were randomly divided into six groups: (1) the CON group; (2) the DOX group; (3) the DOX + enalapril (ENP, positive control, 1.8 mg/kg) group; (4) the DOX + SXT at low dose group (4 g/kg); (5) the DOX + SXT at middle dose group (8 g/kg); and […] the DOX + SXT at high dose group (16 g/kg). Except those rats in the CON group, the remaining rats received DOX at a 2.5 mg/kg per injection to a cumulative dose of 15 mg/kg. The dose of SXT for the low-dose group was set at 4 g/kg, based on the minimum human clinical daily dose (48.5 g, Table S2) converted to an equivalent rat dose using body surface area normalization (48.5 g/70 kg × 6.3 ≈ 4.4 g/kg, rounded to 4 g/kg). To evaluate a clear dose–response relationship, the medium and high doses were established at 8 g/kg and 16 g/kg, respectively, corresponding to 2 fold and 4 fold the low dose. This gradient dosing strategy is consistent with the Technical Guidelines for Pharmacodynamic Studies of Traditional Chinese Medicine and the Technical Guidelines for General Pharmacology Studies of Traditional Chinese Medicine and Natural Drugs, and is further supported by our previous study on the effective dose range of SXT in a rat model of doxorubicin-induced chronic heart failure. Heart function was monitored by echocardiography analysis at day 39, and the CHF model was considered to be successfully established when the left ventricular ejection fraction (LVEF%) values were reduced to 50%. Urinary samples were collected at five time points (0, 10, 20, 30, and 39 d), while fecal samples were collected before the rats were euthanized. Subsequently, the rats were anesthetized, and blood samples and heart and liver tissues were collected. All bio-samples were stored at − 80 °C until analysis.
Experiment II was conducted to specifically confirm the exacerbated cardiac abnormality of phenylalanine in the DOX-induced CHF rats. […] Heart function was detected as in the experiment I.
Echocardiographic (ECG) measurements were performed using M-mode tracings and continuous Doppler with a Vevo 2100 system (Visual Sonics, Toronto, ON, Canada). Rats were anesthetized with isoflurane prior to imaging. Cardiac function indices including left ventricular ejection fraction (LVEF%) and left ventricular fractional shortening (LVFS%) were measured and recorded.

In series [8] the test system is AML12 cells. Type of series: cell-based, mouse. On the procedure: as §1

For the compound `COc1cccc2c1C(=O)c1c(O)c3c(c(O)c1C2=O)C[C@@](O)(C(=O)CO)C[C@@H]3O[C@H]1C[C@H](N)[C@H](O)[C@H](C)O1` [DOX, Doxorubicin], the “mitochondrial ultrastructure of heart (electron microscopy)” value in series [1] is “mitochondrial shrinkage, increased membrane density, and marked reduction and shortening of cristae with focal vacuolization”. In addition, the “phenylalanine levels in hepatic and cardiac tissues and plasma” value in series [2] is reported as “significant elevation”. Further, in series [3], the Muribaculaceae abundance entry is “decreased”. Further, the “relative abundance of Proteobacteria” value in series [3] (p < 0.01) was “significantly increased”. Besides, the cell viability result in series [4] is recorded as “significant reduction”. Besides, the IC50 in series [4] (Mus musculus, AML12, read-out: DOX concentration that caused 50% cell death (IC50)) turned out to be 1 µM. Further, in series [5], the “serum ALT and AST levels” value is “increased”. In series [6], the “H&E and Masson's trichrome staining of cardiac tissue” value was “inflammatory infiltration and increased collagen deposition”. For the same compound, the LVFS in series [7] is < 30% and 25.62%. In series [8], the MDA levels entry is on record as “increase” and the SOD activity result is on record as “significant reduction”.

For the origin of these results see paper PMC12794274, “Therapeutic potential of Sheng-Xian-Tang in doxorubicin-induced chronic heart failure by regulation of phenylalanine metabolism disruption” (Chinese Medicine, 2026).
